Assay results from ChEMBL document CHEMBL4627302, “Design, synthesis and anticancer activities of novel dual poly(ADP-ribose) polymerase-1/histone deacetylase-1 inhibitors” (Bioorg Med Chem Lett, 2020).
Calls of active or inactive are those of the source. The rule behind the calls is not given here.

What was measured:
MDA-MB-231 = test: Antiproliferative activity against human MDA-MB-231 cells assessed as cell growth inhibition by MTT assay; assay type: functional
Histone deacetylase 1 = Histone deacetylase 1 (Homo sapiens, UniProt Q13547); test: Inhibition of HDAC1 (unknown origin)
[1] = molecular target: T1, Poly [ADP-ribose] polymerase 1 (Homo sapiens, UniProt P09874); test: Inhibition of PARP1 (unknown origin) at 20 nM relative to control
MCF7 = test: Antiproliferative activity against human MCF7 cells assessed as cell growth inhibition by MTT assay; assay type: functional
K562 = test: Antiproliferative activity against human K562 cells assessed as cell growth inhibition by MTT assay; assay type: functional
[2] = molecular target: T1, Poly [ADP-ribose] polymerase 1; test: Inhibition of PARP1 (unknown origin)
[3] = molecular target: T1, Poly [ADP-ribose] polymerase 1; test: Potency index, ratio of olaparib IC50 to test compound IC50 for inhibition of PARP1 (unknown origin)

Chain of Histone deacetylase 1 (Q13547 whole entry): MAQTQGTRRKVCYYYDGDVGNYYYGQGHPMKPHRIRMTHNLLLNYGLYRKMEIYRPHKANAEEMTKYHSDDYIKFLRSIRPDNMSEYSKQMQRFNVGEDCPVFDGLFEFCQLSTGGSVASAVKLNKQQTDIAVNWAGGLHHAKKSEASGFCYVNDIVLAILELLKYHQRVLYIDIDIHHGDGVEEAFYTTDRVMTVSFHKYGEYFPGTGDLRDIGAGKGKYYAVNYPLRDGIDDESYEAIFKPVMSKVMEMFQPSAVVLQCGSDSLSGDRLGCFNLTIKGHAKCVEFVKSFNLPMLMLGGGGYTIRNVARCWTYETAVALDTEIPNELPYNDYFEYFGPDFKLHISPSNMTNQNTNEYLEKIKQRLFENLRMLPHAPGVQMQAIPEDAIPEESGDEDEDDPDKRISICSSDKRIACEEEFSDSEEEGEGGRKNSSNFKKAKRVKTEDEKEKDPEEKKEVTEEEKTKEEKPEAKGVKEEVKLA
T1 sequence (P09874 whole entry): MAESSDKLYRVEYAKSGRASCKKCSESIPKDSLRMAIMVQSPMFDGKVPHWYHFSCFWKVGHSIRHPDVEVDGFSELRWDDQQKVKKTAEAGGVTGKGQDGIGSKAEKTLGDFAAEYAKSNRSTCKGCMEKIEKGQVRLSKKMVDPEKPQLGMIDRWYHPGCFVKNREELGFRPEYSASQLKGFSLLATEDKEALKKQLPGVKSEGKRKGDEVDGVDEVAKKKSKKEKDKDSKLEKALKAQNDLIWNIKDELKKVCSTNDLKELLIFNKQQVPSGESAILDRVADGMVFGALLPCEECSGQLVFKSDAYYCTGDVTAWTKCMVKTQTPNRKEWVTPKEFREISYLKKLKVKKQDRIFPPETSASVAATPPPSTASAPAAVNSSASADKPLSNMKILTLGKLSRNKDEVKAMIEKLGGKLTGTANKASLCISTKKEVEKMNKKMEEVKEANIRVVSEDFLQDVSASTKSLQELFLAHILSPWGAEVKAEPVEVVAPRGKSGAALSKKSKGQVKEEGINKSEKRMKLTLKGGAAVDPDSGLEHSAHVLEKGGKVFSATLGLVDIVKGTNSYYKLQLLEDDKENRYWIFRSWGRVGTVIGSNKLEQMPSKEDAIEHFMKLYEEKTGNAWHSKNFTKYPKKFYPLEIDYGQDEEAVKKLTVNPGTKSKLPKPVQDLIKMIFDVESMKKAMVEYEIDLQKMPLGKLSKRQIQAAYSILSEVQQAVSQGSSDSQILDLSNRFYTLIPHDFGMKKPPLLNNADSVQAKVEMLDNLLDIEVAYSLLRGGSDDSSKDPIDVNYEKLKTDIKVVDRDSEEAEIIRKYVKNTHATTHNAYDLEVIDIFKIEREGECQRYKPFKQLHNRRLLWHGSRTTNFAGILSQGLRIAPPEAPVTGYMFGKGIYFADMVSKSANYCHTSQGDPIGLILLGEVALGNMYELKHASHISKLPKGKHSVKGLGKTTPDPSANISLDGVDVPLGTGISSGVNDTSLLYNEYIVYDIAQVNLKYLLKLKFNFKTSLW

## Nc1ccc(F)cc1NC(=O)CCCCNC(=O)c1cc(Cc2n[nH]c(=O)c3ccccc23)ccc1F
MDA-MB-231
  GI50: 31.3 µM
Histone deacetylase 1; read-out: IC50
  IC50: 0.91 µM
[1]
  inhibition: 42.4%
MCF7
  GI50: inactive
K562
  GI50: inactive

## Nc1ccccc1NC(=O)C1CCN(C(=O)c2cc(Cc3n[nH]c(=O)c4ccccc34)ccc2F)CC1
MDA-MB-231
  GI50: 2.31 µM
[2]; read-out: IC50
  IC50: 0.00194 µM
Histone deacetylase 1; read-out: IC50
  IC50: 0.82 µM
MCF7
  GI50: inactive
[3]
  Ratio IC50: 2
K562
  GI50: inactive

## O=C(c1cc(Cc2n[nH]c(=O)c3ccccc23)ccc1F)N1CCN(C(=O)C2CC2)CC1 [OLAPARIB]
MDA-MB-231
  GI50: 4.23 µM
Histone deacetylase 1
  IC50: Not Active
MCF7
  GI50: 13.2 µM
K562
  GI50: inactive

## Nc1cc(F)ccc1NC(=O)c1ccc(CNC(=O)c2cc(Cc3n[nH]c(=O)c4ccccc34)ccc2F)cc1
MDA-MB-231
  GI50: 78.7 µM
Histone deacetylase 1; read-out: IC50
  IC50: 0.34 µM
[1]
  inhibition: 22.1%
MCF7
  GI50: 11.5 µM
K562
  GI50: 2.21 µM

## Nc1ccccc1NC(=O)[C@H]1CC[C@H](CNC(=O)c2cc(Cc3n[nH]c(=O)c4ccccc34)ccc2F)CC1
MDA-MB-231
  GI50: 50.5 µM
Histone deacetylase 1; read-out: IC50
  IC50: 0.34 µM
[1]
  inhibition: 41.3%
MCF7
  GI50: 11.1 µM
K562
  GI50: 2.92 µM

## Nc1cc(F)ccc1NC(=O)[C@H]1CC[C@H](CNC(=O)c2cc(Cc3n[nH]c(=O)c4ccccc34)ccc2F)CC1
MDA-MB-231
  GI50: 49.2 µM
Histone deacetylase 1; read-out: IC50
  IC50: 0.89 µM
[1]
  inhibition: 49.7%
MCF7
  GI50: inactive
K562
  GI50: 6.61 µM

## Nc1ccc(F)cc1NC(=O)C1CCN(C(=O)c2cc(Cc3n[nH]c(=O)c4ccccc34)ccc2F)CC1
MDA-MB-231
  GI50: 1.03 µM
[2]; read-out: IC50
  IC50: 0.00181 µM
Histone deacetylase 1; read-out: IC50
  IC50: 0.95 µM
MCF7
  GI50: inactive
K562
  GI50: inactive

## Nc1ccccc1NC(=O)CCCCCNC(=O)c1cc(Cc2n[nH]c(=O)c3ccccc23)ccc1F
MDA-MB-231
  GI50: 4.35 µM
[2]; read-out: IC50
  IC50: 0.00423 µM
Histone deacetylase 1; read-out: IC50
  IC50: 0.34 µM
MCF7
  GI50: inactive
K562
  GI50: 5.62 µM

## Nc1cc(F)ccc1NC(=O)CCCCNC(=O)c1cc(Cc2n[nH]c(=O)c3ccccc23)ccc1F
MDA-MB-231
  GI50: 25.4 µM
Histone deacetylase 1; read-out: IC50
  IC50: 1 µM
[1]
  inhibition: 64.7%
MCF7
  GI50: inactive

## Nc1ccccc1NC(=O)c1ccc(CNC(=O)c2cc(Cc3n[nH]c(=O)c4ccccc34)ccc2F)cc1
MDA-MB-231
  GI50: 59.3 µM
Histone deacetylase 1; read-out: IC50
  IC50: 0.14 µM
[1]
  inhibition: 37.4%
MCF7
  GI50: 1.91 µM
K562
  GI50: 0.408 µM

## Nc1cc(F)ccc1NC(=O)CCCCCNC(=O)c1cc(Cc2n[nH]c(=O)c3ccccc23)ccc1F
MDA-MB-231
  GI50: 40.5 µM
Histone deacetylase 1; read-out: IC50
  IC50: 0.81 µM
[1]
  inhibition: 46.2%
MCF7
  GI50: inactive
K562
  GI50: 14.7 µM

## Nc1ccc(F)cc1NC(=O)CCCCCNC(=O)c1cc(Cc2n[nH]c(=O)c3ccccc23)ccc1F
MDA-MB-231
  GI50: 13.9 µM
Histone deacetylase 1; read-out: IC50
  IC50: 0.52 µM
[1]
  inhibition: 65.9%
MCF7
  GI50: inactive
K562
  GI50: 8.13 µM

## Nc1ccccc1NC(=O)CCCCNC(=O)c1cc(Cc2n[nH]c(=O)c3ccccc23)ccc1F
MDA-MB-231
  GI50: 61.6 µM
Histone deacetylase 1; read-out: IC50
  IC50: 0.74 µM
[1]
  inhibition: 39.4%
MCF7
  GI50: inactive
K562
  GI50: 62.4 µM

## Nc1cc(F)ccc1NC(=O)C1CCN(C(=O)c2cc(Cc3n[nH]c(=O)c4ccccc34)ccc2F)CC1
MDA-MB-231
  GI50: 4.49 µM
[2]; read-out: IC50
  IC50: 0.00258 µM
Histone deacetylase 1; read-out: IC50
  IC50: 0.94 µM
MCF7
  GI50: inactive
K562
  GI50: inactive

## Nc1ccc(F)cc1NC(=O)c1ccc(CNC(=O)/C=C/c2cccnc2)cc1
MDA-MB-231
  GI50: 2.88 µM
[2]
  IC50: Not Active
MCF7
  GI50: 1.43 µM
K562
  GI50: 0.45 µM
